Experiment [1] has as its system S. aureus CVCC 546. Conditions: for FIC: FIC = MICc/MICa; for MICa: MIC of peptide/antibiotic alone, three parallel experiments.
Protocol: The synergistic effects of AP138L-arg26 with different antibiotics were evaluated using a checkerboard assay. The synergistic effect was calculated using the FICI as follows: FICI = FIC of AP138L-arg26 + FIC of antibiotic; FIC = MICc/MICa, where MICc is the MIC of the peptide and antibiotic in combination, and MICa is the MIC of the peptide/antibiotic alone (Blier et al. [2010]). Three parallel experiments were performed for each group. The efficacy of combination therapy was defined as FICI ≤ 0.5, 0.5 < FICI ≤ 1, 1 < FICI ≤ 4, and FICI > 4 indicating synergy, addition, no difference, and antagonism, respectively.
For experiment [2], the system named is Staphylococcus aureus ATCC 25923. In words: MIC and MBC, broth microdilution. In kind it is cell-based. Conditions: Staphylococcus aureus, ATCC25923. How it is done:
(§1) To determine the MIC values of AP138L-arg26, we used the broth microdilution technique as previously described (Andrews. [2001]; Wiegand et al. [2008]). In brief, AP138L-arg26 peptide were diluted from 1280 to 2.5 µg/mL and added to a 96-cells plate with 10 µL per well. The bacteria in the logarithmic stage were diluted to 10^5 CFU/mL with 90 µL per well. […] The MBC method was also based on the CLSI 2021 guidelines.
(In general: Dilution methods test growth across graded concentrations, often in twofold steps.)

In experiment [3] the test system is Staphylococcus aureus ATCC 43300. The experiment is described as follows: MIC and MBC, broth microdilution. The class given is cell-based. Conditions: Staphylococcus aureus, ATCC43300. How it is done:
as §1

The subject of experiment [4] is Staphylococcus aureus CAAS-FRI-2023-01. In words: MIC and MBC, broth microdilution. In kind it is cell-based. As to conditions: Staphylococcus aureus. How it is done:
as §1

In experiment [5] the test system is Staphylococcus aureus CAAS-FRI-2023-02. The experiment is described as follows: MIC and MBC, broth microdilution. Conditions: Staphylococcus aureus. In kind it is cell-based. The method, then: as §1
For experiment [6], the system named is Staphylococcus aureus CVCC 546. The experiment is described as follows: MIC and MBC, broth microdilution. The class given is cell-based. As to conditions: Staphylococcus aureus, CVCC546. How it is done:
as §1

The subject of experiment [7] is Staphylococcus aureus E48. The experiment is described as follows: MIC and MBC, broth microdilution. The class given is cell-based. Conditions: Staphylococcus aureus, E48. How it is done:
as §1

The subject of experiment [8] is Staphylococcus epidermidis ATCC 12228. In words: MIC and MBC, broth microdilution. In kind it is cell-based. As to conditions: Staphylococcus epidermidis, ATCC12228. How it is done: as §1
Experiment [9] concerns Staphylococcus epidermidis ATCC 35984. In words: MIC and MBC, broth microdilution. In kind it is cell-based. Conditions: Staphylococcus epidermidis, ATCC35984. The method, then: as §1
For experiment [10], the system named is Streptococcus agalactiae ATCC 13813. The experiment is described as follows: MIC and MBC, broth microdilution. The class given is cell-based. As to conditions: Streptococcus agalactiae, ATCC13813. The method, then: as §1
The subject of experiment [11] is Streptococcus agalactiae CAU-FRI-2022-01. The experiment is described as follows: MIC and MBC, broth microdilution. Conditions: Streptococcus agalactiae, CAUFRI202201. The class given is cell-based. How it is done: as §1
The test system of experiment [12] is Streptococcus agalactiae CAU-FRI-2022-02. The experiment is described as follows: MIC and MBC, broth microdilution. In kind it is cell-based. Conditions: Streptococcus agalactiae, CAUFRI202202. How it is done:
as §1

Experiment [13] concerns Streptococcus dysgalactiae CVCC 3938. The experiment is described as follows: MIC and MBC, broth microdilution. Conditions: Streptococcus dysgalactiae, CVCC3938. The class given is cell-based. The method, then:
as §1

A further experiment deals with S. aureus ATCC 43300. In words: Post-antibiotic effect (PAE) assay. In kind it is cell-based, Staphylococcus aureus. As to conditions: PAE = T − C. The source says:
The method of PAE of AP138L-arg26 against MRSA ATCC 43300 or S. aureus CVCC 546 was described previously (Wang et al. [2018]). The formula is PAE = T − C (T is the time required for the number of colonies in the sample treatment group to increase by tenfold, and C is the time required for the untreated group).

Experiment [14] has as its system S. aureus CVCC 546. In words: Growth curve of S. aureus. As to conditions: AP138L-arg26 8 µg/mL (2 × MIC), ceftiofur sodium 0.25 µg/mL (1/8 MIC), alone or combined; 1 × 10^5 CFU/mL. In kind it is cell-based, Staphylococcus aureus. The method, then: Samples were taken during the logarithmic growth of S. aureus and diluted to 1 × 10^5 CFU/mL (Delpech et al. [2019]). Different concentrations of AP138L-arg26, ceftiofur sodium, or a combination of them with an equal volume of bacteria were added to a 96-well microplate. The growth curves were recorded using a fully automatic growth curve recording instrument.

[15] abbreviates: 99.99% of bacteria killed, plated on MHA, read-out: MBC.
Setting [16] is: broth microdilution, 10^5 CFU/mL, 37 °C, 18 h, read-out: MIC.

The term MBC denotes the smallest concentration meeting the test's criterion for killing. One may read the MIC as the lowest concentration found to suppress growth.

Values after ≈ are worked out from the molar mass of the structure shown. Structures can show the parent of a compound that is named as a salt. Where two headings read alike, the source gives them in different places.

Take `CC1(C)S[C@@H]2[C@H](NC(=O)[C@H](N)c3ccccc3)C(=O)N2[C@H]1C(=O)O` [Ampicillin]: the FIC in the experiment with S. aureus CVCC 546 [1] (combination AP138L-arg26-ampicillin) was 0.0625. Moreover, the MICc in the experiment on S. aureus CVCC 546 [1] (in combination AP138L-arg26-ampicillin) is 0.0078 µg/mL.
With `[H]/N=C(/N)N[C@H]1[C@H](O)[C@@H](O)[C@H](O[C@@H]2O[C@@H](C)[C@](O)(C=O)[C@H]2O[C@@H]2O[C@@H](CO)[C@H](O)[C@@H](O)[C@@H]2NC)[C@@H](N/C(N)=N\[H])[C@@H]1O` [Streptomycin sulfate], in the experiment on S. aureus CVCC 546 [1] (combination AP138L-arg26-Streptomycin sulfate), the FIC was determined as 0.5. The MICa in the experiment with S. aureus CVCC 546 [1] came to 1 µg/mL. The MICc in the experiment on S. aureus CVCC 546 [1] (in combination AP138L-arg26-Streptomycin sulfate) is recorded as 0.5 µg/mL.
In the case of `CN[C@H](CC(C)C)C(=O)N[C@H]1C(=O)N[C@@H](CC(N)=O)C(=O)N[C@H]2C(=O)N[C@H]3C(=O)N[C@H](C(=O)N[C@H](C(=O)O)c4cc(O)cc(O)c4-c4cc3ccc4O)[C@H](O)c3ccc(c(Cl)c3)Oc3cc2cc(c3O[C@@H]2O[C@H](CO)[C@@H](O)[C@H](O)[C@H]2O[C@H]2C[C@](C)(N)[C@H](O)[C@H](C)O2)Oc2ccc(cc2Cl)[C@H]1O` [vancomycin, reference compound], the MBC in experiment [2] (setting [15]) came to 2 µg/mL (≈ 1.38 µM); in experiment [3] (setting [15]) it was 1 µg/mL (≈ 0.69 µM); in experiment [4] (setting [15]), 2 µg/mL (≈ 1.38 µM); in experiment [5] (setting [15]), 8 µg/mL (≈ 5.52 µM); in experiment [6] (setting [15]) it was 1 µg/mL (≈ 0.69 µM); in experiment [7] (setting [15]), 8 µg/mL (≈ 5.52 µM). Besides, the MBC in experiment [8] (setting [15]) turned out to be 4 µg/mL (≈ 2.76 µM); in [9] (setting [15]), 4 µg/mL (≈ 2.76 µM); in [10] (setting [15]) it was 4 µg/mL (≈ 2.76 µM); in experiment [11] (setting [15]), 8 µg/mL (≈ 5.52 µM); in experiment [12] (setting [15]), 4 µg/mL (≈ 2.76 µM); in experiment [13] (setting [15]), 2 µg/mL (≈ 1.38 µM). The MIC in experiment [2] (setting [16]) is 1 µg/mL (≈ 0.69 µM); in experiment [3] (setting [16]) it was 1 µg/mL (≈ 0.69 µM); in experiment [4] (setting [16]) it was 1 µg/mL (≈ 0.69 µM); in experiment [5] (setting [16]), 2 µg/mL (≈ 1.38 µM); in experiment [6] (setting [16]) it was 1 µg/mL (≈ 0.69 µM); in [7] (setting [16]) it was 1 µg/mL (≈ 0.69 µM). Further, the MIC in experiment [8] (setting [16]), in [9] (setting [16]), in experiment [10] (setting [16]), in experiment [11] (setting [16]), in experiment [12] (setting [16]) and in experiment [13] (setting [16]) was 2 µg/mL (≈ 1.38 µM) in each case. Moreover, the PAE is 0.27 h in the experiment on S. aureus ATCC 43300 (1 × MIC), 0.45 h in the experiment on S. aureus ATCC 43300 (2 × MIC) and 1.18 h with S. aureus ATCC 43300 (4 × MIC). Further, in the experiment with S. aureus CVCC 546 [1], the MICa stood at 1 µg/mL.
Consider `CO/N=C(\C(=O)N[C@@H]1C(=O)N2C(C(=O)[O-])=C(CSC(=O)c3ccco3)CS[C@H]12)c1csc(N)n1.[Na+]` [Ceftiofur sodium, ceftiofur sodium], for which the “effect on the growth of S. aureus CVCC 546” value in the experiment with S. aureus CVCC 546 [14] is reported as “little effect on the growth”. Besides, the FIC in the experiment with S. aureus CVCC 546 [1] (combination AP138L-arg26-ceftiofur sodium) is 0.25. Also, the MICc with S. aureus CVCC 546 [1] (in combination AP138L-arg26-ceftiofur sodium) came to 0.25 µg/mL.

These data come from PMC10787893, “Expression and characterization of the new antimicrobial peptide AP138L-arg26 anti Staphylococcus aureus” (Applied Microbiology and Biotechnology, 2024).
